Test results from patent publication US10981932B2, “Macrocyclic indole derivatives” (Bayer Aktiengesellschaft, priority 2016, dated 2021).
Values joined by “and” are separate entries in the source; they are usually repeats but may differ in a detail not shown here. Identical values can stand only once. Counter-ions that a name gives are not always drawn. Like-named read-outs stand apart in the source and are kept apart here.

Assays:
BCL-2 = molecular target: T1, BCL-2 (Homo sapiens, UniProt P10415); assay: Protein-protein interaction assay BCL-2/Bad BH3 peptide (BCL-2 assay), TR-FRET; format: binding; conditions: His-BCL-2 / Bad BH3-derived peptide, median
T1 construct: BCL-2 (amino acids 1-211, C-terminal fused to a hexahistidine (6×His) tag); purchased BPS Bioscience (San Diego, Calif., USA); host or cells: E. coli
Protocol: Protein-Protein Interaction Assay: BCL-2/Bad BH3 Peptide (BCL-2 Assay)
The dose-dependent inhibition by the compounds described in this invention of the interaction between BCL-2 and the BH3 domain of Bad (both human) was determined using a steady state binding competition assay with time-resolved fluorescence energy transfer (TR-FRET) readout. For that purpose BCL-2 (amino acids 1-211, C-terminal fused to a hexahistidine (6×His) tag and a synthetic Bad BH3-derived peptide of sequence Biotin-PEG2-PEG2-NLWAAQRYGRELRR-Nle-SDEFVDSFKK-amide (SEQ ID NO: 2) served as protein receptor and tracer ligand respectively. The recombinant BCL-2 protein (expressed in E. coli) was purchased from BPS Bioscience (San Diego, Calif., USA). The Bad BH3-derived peptide can be obtained from e.g. Biosyntan (Berlin, Germany).
In the assay 11 different concentrations of each compound (0.1 nM, 0.33 nM, 1.1 nM, 3.8 nM. 13 nM, 44 nM, 0.15 μM, 0.51 μM, 1.7 μM, 5.9 μM and 20 μM) were typically measured as duplicates in the same microtiter plate. For that, 100-fold concentrated DMSO solutions were prepared by serial dilutions (1:3.4) of a 2 mM stock solution in a clear, 384-well microtiter plate (Greiner Bio-One, Frickenhausen, Germany). From there, 50 nl were transferred in a dark test plate (Greiner Bio-One. Frickenhausen, Germany). The assay was initiated by addition of 2 μl of a 2,5-fold concentrated His-BCL-2 solution (usually for a 1 nM end concentration in 5 μl reaction volume) in aqueous assay buffer [50 mM Tris/HCl pH 7, 100 mM sodium chloride (NaCl), 50 mM potassium fluoride (KF), 0.005% Tween-20, 2 mM DTT, 0.1% bovine gamma globulin (BGG)] to the compounds in the assay plate. This was followed by a 10-minute incubation step at 22° C. for pre-equilibration of the putative complex between His-BCL-2 and the compounds.
The mixture was incubated in the dark for one hour at 22° C. and then overnight at 4° C. The formation of BCL-2/Bad complexes was determined by measuring the resonance energy transfer of the anti-His-Eu-cryptate antibody to the streptavidin-XL665 present in the reaction. For that purpose, the fluorescence emission at 620 nm and 665 nm after excitation at 330-350 nm was measured in a TR-FRET measuring instrument, for instance a Rubystar or a Pherastar (both from BMG Lab Technologies. Offenburg, Germany) or a Viewlux (Perkin-Elmer). The ratio of the emission at 665 nm and at 622 nm was used as indicator of the amount of BCL-2/Bad complexes present.
The resulting data (ratio) were normalized, taking 0% inhibition as the mean value of control measurements (usually 32 data points) where all reagents were included. In this case 50 nl DMSO were used instead of compounds. A 100% inhibition corresponded to the mean value of control measurements (usually 32 data points) where all reagents except BCL-2 were included. IC50 values were determined by regression analysis based on a 4 parameter equation (minimum, maximum, IC50, Hill; Y=Max+(Min−Max)/(1+(X/IC50)^Hill) using the Screener Software (Genedata).

A2780 = assay: Anti-proliferative effect (CellTiter-Glo, 72 h), A2780; format: cell-based; conditions: A2780 cells, median, read-out: IC50 antiproliferation assay A2780 [M] (median)
Summary of the method: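 A time zero plate, read with CellTiter-Glo shortly after seeding, served as baseline; compound-treated plates were incubated 72 h at 37 °C and then read identically by luminescence.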

T1 sequence (P10415 1-211): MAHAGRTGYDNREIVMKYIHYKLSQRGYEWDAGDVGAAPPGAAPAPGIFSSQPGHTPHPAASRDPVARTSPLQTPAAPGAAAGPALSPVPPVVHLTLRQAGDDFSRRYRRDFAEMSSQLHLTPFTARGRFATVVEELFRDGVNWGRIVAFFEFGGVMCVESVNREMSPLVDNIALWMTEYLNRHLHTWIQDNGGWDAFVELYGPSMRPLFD

Compound	IC50 (BCL-2) [µM]	IC50 (A2780; Homo sapiens, A2780, 72 h) [M]	IC50 (A2780)
CCc1c2c(nn1C)COCCCCn1c(C(=O)O)c(CCCOc3cccc4ccccc34)c3cccc-2c31 (single isomer, unassigned; enantiomer 1) [Example 148, 3-Ethyl-2-methyl-7-[3-(1-naphthyloxy)propyl]-2,10,11,12,13,15-hexahydropyrazolo[4′,3′:9,10][1,6]oxazacycloundecino[8,7,6-hi]indole-8-carboxylic acid-N-ethylethanamine Salt (Enantiomer 1)]	> 20	2e-05	–
CCc1c2c(nn1C)CN(C)CCCn1c(C(=O)O)c(CCCOc3cccc4ccccc34)c3ccc(C)c-2c31 (single isomer, unassigned; enantiomer 1) [Example 145, 11-Ethyl-7,10,12-trimethyl-1-[3-(1-naphthyloxy)propyl]-4,5,6,7,8,10-hexahydropyrazolo[3′,4′:7,8][1,5]diazecino[9,10,1-hi]indole-2-carboxylic acid-N-ethylethanamine Salt (Enantiomer 1)]	> 20	1.36e-05	–
COCCn1nc2c(c1C)-c1cccc3c(CCCOc4cccc5ccccc45)c(C(=O)O)n(c13)CCCCOC2 (single isomer, unassigned; enantiomer 1) [Example 107, 2-(2-methoxyethyl)-3-methyl-7-[3-(naphthalen-1-yloxy)propyl]-2,10,11,12,13,15-hexahydropyrazolo[4′,3′:9,10][1,6]oxazacycloundecino[8,7,6-hi]indole-8-carboxylic acid-N-ethylethanamine Salt (Enantiomer 1)]	> 20	–	> 3.3e-05 M and 2.08e-05 M
Cc1nn(C)c2c1-c1cccc3c(CCCOc4cccc5cc(F)ccc45)c(C(=O)O)n(c13)CCCOC2 (single isomer, unassigned; enantiomer 1) [Example 047, 1-{3-[(6-fluoronaphthalen-1-yl)oxy]propyl}-9,11-dimethyl-5,6,8,9-tetrahydro-4H-pyrazolo[4′,3′:8,9][1,5]oxazecino[7,6,5-hi]indole-2-carboxylic acid-N-ethylethanamine Salt (Enantiomer 1)]	> 20	–	2.69e-05 M
